Where a chain is given by its changes, count along the chain named. Blank lines part the entries; values can stand above or below the molecule they belong to.
What was measured:
[1] = molecular target: T1, intrinsic renin contained in the renatured human plasma (Homo sapiens, UniProt P00797); test: Renin inhibition in vitro (angiotensin I production in renatured human plasma, RIA); type: biochemical; conditions: 60 minutes incubation, read-out: IC50 (concentration which inhibits renin activity by 50%)
T1 construct: intrinsic renin contained in the renatured plasma; tissue Ortho Bi-Level Plasma Renin Control; host or cells: human plasma (lyophilized, renatured in water)
T1 sequence (P00797 67-406): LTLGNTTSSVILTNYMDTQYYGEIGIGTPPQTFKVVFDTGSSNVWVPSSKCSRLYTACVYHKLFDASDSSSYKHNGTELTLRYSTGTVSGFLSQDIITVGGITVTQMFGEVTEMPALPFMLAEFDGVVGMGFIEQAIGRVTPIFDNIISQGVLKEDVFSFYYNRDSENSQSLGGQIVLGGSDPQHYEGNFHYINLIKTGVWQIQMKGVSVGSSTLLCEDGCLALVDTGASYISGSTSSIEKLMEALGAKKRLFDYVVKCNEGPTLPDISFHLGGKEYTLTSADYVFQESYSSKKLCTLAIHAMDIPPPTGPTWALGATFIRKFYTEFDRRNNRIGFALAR
Protocol: Commercially available lyophilized human plasma (Ortho, Bi-Level Plasma Renin Control) was renatured by dissolving in water. Angiotensinogen was allowed to react with intrinsic renin contained in the renatured plasma to generate angiotensin I (AI), which was quantitatively measured with radioimmunoassay (RIA). Thus, potency of the plasma renin was determined on the basis of the AI production. For this purpose, Renin RIA kit (RENIN' RIABEAD®) manufacture by Dinabott was used. All of the reagents necessary for the measurement of the AI production were available from the attachment of the kit, and the measurement was conducted according to the manufacturer's direction.
To the plasma (0.2 ml) were added all of the reagents, and the mixture was combined with either of sample solutions (0.002 ml) of various concentrations which had been prepared by dissolving a test compound in different amount of ethanol. Ethanol (0.002 ml) containing no test compound was used as a control solution. The amount of AI produced was measured after 60 minutes incubation. Renin inhibition potency of test compound was determined by comparing the amount of AI produced by a sample solution with that produced by a control solution.

[2] = molecular target: T2, Plasma renin activity (Macaca fascicularis, UniProt Q6DLS0); test: Renin inhibition in vivo (plasma renin activity after oral administration to hyperrenin monkeys); parameters: species or system Crab-eating monkeys (Cynomolgus monkeys); conditions: low sodium diet + furosemide; for Renin inhibition potency, 4 h: 4 h after administration; for Renin inhibition potency, 8 h: 8 h after administration
T2 construct: Two milliliters of blood was collected from femoral vein; from tissue; host or cells: plasma of cynomolgus monkeys made hyperreninemic by low sodium diet and furosemide
T2 sequence (Q6DLS0 67-406): T1 sequence (P00797 67-406) with T2A, I148L, S169A
Protocol: Crab-eating monkeys (Cynomolgus monkeys) (2.8-5.0 kg) were fed on low sodium diet (Na 7.15 mg/100 g feed) for six days, during which the monkeys intramuscularly received furosemide (2 mg/kg body weight) every other day from the second day of the experiment, in order to make the monkeys hyperrenin condition.
After seven days from the low sodium feeding, the monkeys were restrained on a monkey chair. Compounds to be tested are dissolved in 0.1 M citric acid/physiological saline or suspended in water with addition of β-cyclodextrin, and orally administered to the monkeys using a stomach probe (15 mg/kg body weight). […] For the blood collection, an injection syringe containing 30 μl of 6% aqueous EDTA·2Na solution was used. The collected blood was transferred into a test tube and centrifuged (3000 rpm, 10 minutes) at 4° C., and the resultant supernatant was used to determine the renin content. Plasma renin activity (AI(ng)/ml/h value) was measured using Radioimmunoassy kit commercially available from Dinabott Co. in the same manner as in the foregoing in vitro test. Renin inhibition potencies of the compounds tested, which were expressed as a percentage of renin activity relative to the activity before the administration, are listed in Table 12.

Renin inhibition potency, Max ([2]; 15 mg/kg orally): 96% | Renin inhibition potency, Mean ([2]; 15 mg/kg orally): 85% | Renin inhibition potency, 4 h ([2]; 15 mg/kg orally): 94% | Renin inhibition potency, 8 h ([2]; 15 mg/kg orally): 73% | IC50 [1]: 0.36 nM
SMILES: O=C(N[C@@H](CC1CCCCC1)[C@@H](O)CNS(=O)(=O)N1CCOCC1)[C@H](Cc1cscn1)NC(=O)[C@H](Cc1ccccc1)NS(=O)(=O)N1CCOCC1 [Example 53]

IC50 [1]: 39.2 nM
SMILES: COc1ccc(C(=O)C[C@H](O)[C@H](CC2CCCCC2)NC(=O)[C@H](Cc2c[nH]cn2)NC(=O)[C@H](Cc2ccccc2)CS(=O)(=O)C(C)(C)C)cc1 [Example 22]

IC50 [1]: 0.53 nM
SMILES: CC(C)(C)S(=O)(=O)CC(Cc1ccccc1)C(=O)NC(Cc1cscn1)C(=O)NC(CC1CCCCC1)C(O)CNS(C)(=O)=O (centres unmarked) [Example 69]

Renin inhibition potency, Max ([2]; 15 mg/kg orally): 93% | Renin inhibition potency, Mean ([2]; 15 mg/kg orally): 72% | Renin inhibition potency, 4 h ([2]; 15 mg/kg orally): 82% | Renin inhibition potency, 8 h ([2]; 15 mg/kg orally): 85% | IC50 [1]: 0.7 nM
SMILES: CN(C)S(=O)(=O)NCC(O)C(CC1CCCCC1)NC(=O)C(Cc1cscn1)NC(=O)C(Cc1ccccc1)NS(=O)(=O)N1CCOCC1 (centres unmarked) [Example 56]

IC50 [1]: 39.2 nM
SMILES: CCS(=O)(=O)C[C@@H](Cc1ccccc1)C(=O)N[C@@H](Cc1c[nH]cn1)C(=O)N[C@@H](CC1CCCCC1)[C@@H](O)CC(=O)c1ccccc1 [Example 38]

IC50 [1]: 1.24 nM
SMILES: CC(C)(C)S(=O)(=O)C[C@@H](Cc1ccccc1)C(=O)N[C@@H](Cc1cscn1)C(=O)N[C@@H](CC1CCCCC1)[C@@H](O)CNS(=O)(=O)c1ccccc1 [Example 62]

The next lines start with the molecule.

SMILES: CC(C)OC(=O)C(O)C(CC1CCCCC1)NC(=O)[C@H](Cc1cnc[nH]1)NC(=O)[C@@H](CC(=O)N1CCOCC1)Cc1cccc2ccccc12 (some centres unmarked) [KRI-1314, reference compound]
IC50 [1]: 21.3 nM

SMILES: O=C(C[C@H](O)[C@H](CC1CCCCC1)NC(=O)[C@H](Cc1c[nH]cn1)NC(=O)[C@@H](CC(=O)N1CCOCC1)Cc1cccc2ccccc12)c1ccccc1 [Example 40]
Renin inhibition potency, Max ([2]; 15 mg/kg orally): 44% | Renin inhibition potency, Mean ([2]; 15 mg/kg orally): 30% | Renin inhibition potency, 4 h ([2]; 15 mg/kg orally): 44% | IC50 [1]: 18.1 nM

SMILES: CC(C)(C)S(=O)(=O)C[C@@H](Cc1ccccc1)C(=O)N[C@@H](Cc1c[nH]cn1)C(=O)N[C@@H](CC1CCCCC1)[C@@H](O)CC(=O)c1ccncc1 [Example 1, 3-t-Butylsulfonyl-2(S)-phenylmethylpropionyl-His-1(S)-cyclohexylmethyl-2(S)-hydroxy-4-oxo-4-(4-pyridyl)butylamide]
Renin inhibition potency, Max ([2]; 30 mg/kg orally): 33% | Renin inhibition potency, Mean ([2]; 30 mg/kg orally): 22% | Renin inhibition potency, 4 h ([2]; 30 mg/kg orally): 22% | IC50 [1]: 6.09 nM

SMILES: CC(C)S(=O)(=O)C[C@@H](Cc1ccccc1)C(=O)N[C@@H](Cc1c[nH]cn1)C(=O)N[C@@H](CC1CCCCC1)[C@@H](O)CC(=O)c1ccccc1 [Example 37]
IC50 [1]: 14.5 nM

SMILES: O=C(C[C@H](O)[C@H](CC1CCCCC1)NC(=O)[C@H](Cc1c[nH]cn1)NC(=O)[C@@H](CC(=O)N1CCOCC1)Cc1cccc2ccccc12)c1ccncc1 [Example 42]
IC50 [1]: 13 nM

SMILES: O=C(C[C@H](O)[C@H](CC1CCCCC1)NC(=O)[C@H](Cc1cscn1)NC(=O)[C@@H](CC(=O)N1CCOCC1)Cc1cccc2ccccc12)NCCN1CCOCC1 [ES-6864, reference compound]
IC50 [1]: 3.75 nM
